We go through two compounds from ChEMBL document CHEMBL1136912, “Synthesis and in vivo influenza virus-inhibitory effect of ester prodrug of 4-guanidino-7-O-methyl-Neu5Ac2en” (Bioorg Med Chem Lett, 2009).

A short description of the assay: Inhibition of Tamiflu-resistant Influenza A virus (A/Yokohama/67/2006 (H1N1)) sialidase.

The term IC50 denotes the concentration at which inhibition is half-maximal. For `CO[C@@H]([C@@H]1OC(C(=O)O)=C[C@H](NC(=N)N)[C@H]1NC(C)=O)[C@H](O)CO` [LANINAMIVIR], the IC50 turned out to be 5.62 nM.
`CC(=O)N[C@H]1[C@H]([C@H](O)[C@H](O)CO)OC(C(=O)O)=C[C@@H]1NC(=N)N` [ZANAMIVIR] yielded a 50% inhibitory concentration (IC50) of 3.05 nM.
